From US20240000872A1, “NOVEL BACTERIOPHAGE THAT LYSES ACINETOBACTER GENUS BACTERIA HAVING RESISTANCE TO ANTIBIOTICS” (priority 2020, published 2024)

System: Acinetobacter baumannii strains
Assay: Antibiotic susceptibility test (CLSI disk diffusion test method, read per CLSI 2016); for antibiotic susceptibility S/I/R: key: ‘S’ means susceptible; ‘I’ means intermediate; ‘R’ means resistant; for susceptibility category (S/I/R): key: ‘S’ means susceptible; ‘I’ means intermediate; ‘R’ means resistant
Type: cell-based
Design: antibiotic susceptibility test value / susceptibility test value (number given before S/I/R) / antibiotic susceptibility value: unit not given here

colistin
antibiotic susceptibility value (host strain YMC16/01/R353): 0.5 | susceptibility category (S/I/R) (host strain YMC16/01/R353): S | susceptibility test value (number given before S/I/R) (host strain YMC16/01/R353): 0.5 | antibiotic susceptibility S/I/R (host strain YMC16/01/R380): S | antibiotic susceptibility value (host strain YMC16/01/R380): 0.5 | susceptibility category (S/I/R) (host strain YMC16/01/R380): S | susceptibility test value (number given before S/I/R) (host strain YMC16/01/R380): 0.5 | antibiotic susceptibility S/I/R (host strain YMC16/01/R397): S | antibiotic susceptibility value (host strain YMC16/01/R397): 0.5 | susceptibility category (S/I/R) (host strain YMC16/01/R397): S | susceptibility test value (number given before S/I/R) (host strain YMC16/01/R397): 0.5 | antibiotic susceptibility S/I/R (host strain YMC16/01/R405): S | antibiotic susceptibility value (host strain YMC16/01/R405): 0.5 | susceptibility category (S/I/R) (host strain YMC16/01/R405): S | susceptibility test value (number given before S/I/R) (host strain YMC16/01/R405): 0.5 | antibiotic susceptibility S/I/R (host strain YMC16/03/R4461): R | antibiotic susceptibility value (host strain YMC16/03/R4461): 16 | susceptibility category (S/I/R) (host strain YMC16/03/R4461): R | susceptibility test value (number given before S/I/R) (host strain YMC16/03/R4461): 16 | antibiotic susceptibility S/I/R (host strain YMC16/05/R2210): R | antibiotic susceptibility value (host strain YMC16/05/R2210): 16 | susceptibility category (S/I/R) (host strain YMC16/05/R2210): R | susceptibility test value (number given before S/I/R) (host strain YMC16/05/R2210): 16 | antibiotic susceptibility S/I/R (host strain YMC16/07/R2512): R | antibiotic susceptibility value (host strain YMC16/07/R2512): 16 | susceptibility category (S/I/R) (host strain YMC16/07/R2512): R | susceptibility test value (number given before S/I/R) (host strain YMC16/07/R2512): 16 | antibiotic susceptibility S/I/R (host strain YMC16/09/R2471): R | antibiotic susceptibility value (host strain YMC16/09/R2471): 16 | susceptibility category (S/I/R) (host strain YMC16/09/R2471): R | susceptibility test value (number given before S/I/R) (host strain YMC16/09/R2471): 16 | antibiotic susceptibility S/I/R (host strain YMC16/10/R2537): R | antibiotic susceptibility value (host strain YMC16/10/R2537): 16 | susceptibility category (S/I/R) (host strain YMC16/10/R2537): R | susceptibility test value (number given before S/I/R) (host strain YMC16/10/R2537): 16 | antibiotic susceptibility S/I/R (host strain YMC16/12/B11422): S | antibiotic susceptibility value (host strain YMC16/12/B11422): 0.5 | susceptibility category (S/I/R) (host strain YMC16/12/B11422): S | susceptibility test value (number given before S/I/R) (host strain YMC16/12/B11422): 0.5 | antibiotic susceptibility S/I/R (host strain YMC16/12/B11449): S | antibiotic susceptibility value (host strain YMC16/12/B11449): 0.5 | susceptibility category (S/I/R) (host strain YMC16/12/B11449): S | susceptibility test value (number given before S/I/R) (host strain YMC16/12/B11449): 0.5 | antibiotic susceptibility S/I/R (host strain YMC16/12/B13325): S | antibiotic susceptibility value (host strain YMC16/12/B13325): 0.5 | susceptibility category (S/I/R) (host strain YMC16/12/B13325): S | susceptibility test value (number given before S/I/R) (host strain YMC16/12/B13325): 0.5 | antibiotic susceptibility S/I/R (host strain YMC16/12/P503): R | antibiotic susceptibility value (host strain YMC16/12/P503): 16 | susceptibility category (S/I/R) (host strain YMC16/12/P503): R | susceptibility test value (number given before S/I/R) (host strain YMC16/12/P503): 16 | antibiotic susceptibility S/I/R (host strain YMC16/12/R4637): R | antibiotic susceptibility value (host strain YMC16/12/R4637): 16 | susceptibility category (S/I/R) (host strain YMC16/12/R4637): R | susceptibility test value (number given before S/I/R) (host strain YMC16/12/R4637): 16 | antibiotic susceptibility S/I/R (host strain YMC17/01/B8053): S | antibiotic susceptibility value (host strain YMC17/01/B8053): 0.5 | susceptibility category (S/I/R) (host strain YMC17/01/B8053): S | susceptibility test value (number given before S/I/R) (host strain YMC17/01/B8053): 0.5 | antibiotic susceptibility S/I/R (host strain YMC17/01/B10087): S | antibiotic susceptibility value (host strain YMC17/01/B10087): 0.5 | susceptibility category (S/I/R) (host strain YMC17/01/B10087): S | susceptibility test value (number given before S/I/R) (host strain YMC17/01/B10087): 0.5 | antibiotic susceptibility S/I/R (host strain YMC17/01/B12075): S | antibiotic susceptibility value (host strain YMC17/01/B12075): 22 | susceptibility category (S/I/R) (host strain YMC17/01/B12075): S | susceptibility test value (number given before S/I/R) (host strain YMC17/01/B12075): 22 | antibiotic susceptibility S/I/R (host strain YMC17/01/B13454): S | antibiotic susceptibility value (host strain YMC17/01/B13454): 0.5 | susceptibility category (S/I/R) (host strain YMC17/01/B13454): S | susceptibility test value (number given before S/I/R) (host strain YMC17/01/B13454): 0.5 | antibiotic susceptibility S/I/R (host strain YMC17/01/P518): S | antibiotic susceptibility value (host strain YMC17/01/P518): 0.5 | susceptibility category (S/I/R) (host strain YMC17/01/P518): S | susceptibility test value (number given before S/I/R) (host strain YMC17/01/P518): 0.5 | antibiotic susceptibility S/I/R (host strain YMC17/01/R2812): R | antibiotic susceptibility value (host strain YMC17/01/R2812): 16 | susceptibility category (S/I/R) (host strain YMC17/01/R2812): R | susceptibility test value (number given before S/I/R) (host strain YMC17/01/R2812): 16 | antibiotic susceptibility S/I/R (host strain YMC17/02/B14): S | antibiotic susceptibility value (host strain YMC17/02/B14): 0.5 | susceptibility category (S/I/R) (host strain YMC17/02/B14): S | susceptibility test value (number given before S/I/R) (host strain YMC17/02/B14): 0.5 | antibiotic susceptibility S/I/R (host strain YMC17/02/B87): S | antibiotic susceptibility value (host strain YMC17/02/B87): 0.5 | susceptibility category (S/I/R) (host strain YMC17/02/B87): S | susceptibility test value (number given before S/I/R) (host strain YMC17/02/B87): 0.5 | antibiotic susceptibility S/I/R (host strain YMC17/02/B721): S | antibiotic susceptibility value (host strain YMC17/02/B721): 0.5 | susceptibility category (S/I/R) (host strain YMC17/02/B721): S | susceptibility test value (number given before S/I/R) (host strain YMC17/02/B721): 0.5 | antibiotic susceptibility S/I/R (host strain YMC17/02/B4039): S | antibiotic susceptibility value (host strain YMC17/02/B4039): 0.5 | susceptibility category (S/I/R) (host strain YMC17/02/B4039): S | susceptibility test value (number given before S/I/R) (host strain YMC17/02/B4039): 0.5 | antibiotic susceptibility S/I/R (host strain YMC17/02/B4520): S | antibiotic susceptibility value (host strain YMC17/02/B4520): 0.5 | susceptibility category (S/I/R) (host strain YMC17/02/B4520): S | susceptibility test value (number given before S/I/R) (host strain YMC17/02/B4520): 0.5 | antibiotic susceptibility S/I/R (host strain YMC17/02/B4864): S | antibiotic susceptibility value (host strain YMC17/02/B4864): 0.5 | susceptibility category (S/I/R) (host strain YMC17/02/B4864): S | susceptibility test value (number given before S/I/R) (host strain YMC17/02/B4864): 0.5 | antibiotic susceptibility S/I/R (host strain YMC17/02/B8414): S | antibiotic susceptibility value (host strain YMC17/02/B8414): 0.5 | susceptibility category (S/I/R) (host strain YMC17/02/B8414): S | susceptibility test value (number given before S/I/R) (host strain YMC17/02/B8414): 0.5 | antibiotic susceptibility S/I/R (host strain YMC17/02/P523): S | antibiotic susceptibility value (host strain YMC17/02/P523): 0.5 | susceptibility category (S/I/R) (host strain YMC17/02/P523): S | susceptibility test value (number given before S/I/R) (host strain YMC17/02/P523): 0.5 | antibiotic susceptibility S/I/R (host strain YMC17/02/R541): R | antibiotic susceptibility value (host strain YMC17/02/R541): 16 | susceptibility category (S/I/R) (host strain YMC17/02/R541): R | susceptibility test value (number given before S/I/R) (host strain YMC17/02/R541): 16 | antibiotic susceptibility S/I/R (host strain YMC17/02/R2392): R | antibiotic susceptibility value (host strain YMC17/02/R2392): 16 | susceptibility category (S/I/R) (host strain YMC17/02/R2392): R | susceptibility test value (number given before S/I/R) (host strain YMC17/02/R2392): 4 | antibiotic susceptibility S/I/R (host strain YMC17/03/B4730): S | antibiotic susceptibility value (host strain YMC17/03/B4730): 0.5 | susceptibility category (S/I/R) (host strain YMC17/03/B4730): S | susceptibility test value (number given before S/I/R) (host strain YMC17/03/B4730): 0.5 | antibiotic susceptibility S/I/R (host strain YMC17/03/B5000): S | antibiotic susceptibility value (host strain YMC17/03/B5000): 0.5 | susceptibility category (S/I/R) (host strain YMC17/03/B5000): S | susceptibility test value (number given before S/I/R) (host strain YMC17/03/B5000): 0.5 | antibiotic susceptibility S/I/R (host strain YMC17/03/P971): R | antibiotic susceptibility value (host strain YMC17/03/P971): 16 | susceptibility category (S/I/R) (host strain YMC17/03/P971): R | susceptibility test value (number given before S/I/R) (host strain YMC17/03/P971): 16 | antibiotic susceptibility S/I/R (host strain YMC17/03/R348): R | antibiotic susceptibility value (host strain YMC17/03/R348): 16 | susceptibility category (S/I/R) (host strain YMC17/03/R348): R | susceptibility test value (number given before S/I/R) (host strain YMC17/03/R348): 4 | antibiotic susceptibility S/I/R (host strain YMC17/03/R585): R | antibiotic susceptibility value (host strain YMC17/03/R585): 16 | susceptibility category (S/I/R) (host strain YMC17/03/R585): R | susceptibility test value (number given before S/I/R) (host strain YMC17/03/R585): 16 | antibiotic susceptibility S/I/R (host strain YMC17/03/R1888): R | antibiotic susceptibility value (host strain YMC17/03/R1888): 16 | susceptibility category (S/I/R) (host strain YMC17/03/R1888): R | susceptibility test value (number given before S/I/R) (host strain YMC17/03/R1888): 16 | antibiotic susceptibility S/I/R (host strain YMC17/03/R3279): R | antibiotic susceptibility value (host strain YMC17/03/R3279): 16 | susceptibility category (S/I/R) (host strain YMC17/03/R3279): R | susceptibility test value (number given before S/I/R) (host strain YMC17/03/R3279): 16 | antibiotic susceptibility S/I/R (host strain YMC17/03/R4077): S | antibiotic susceptibility value (host strain YMC17/03/R4077): 0.5 | susceptibility category (S/I/R) (host strain YMC17/03/R4077): S | susceptibility test value (number given before S/I/R) (host strain YMC17/03/R4077): 0.5 | antibiotic susceptibility S/I/R (host strain YMC17/03/R4607): S | antibiotic susceptibility value (host strain YMC17/03/R4607): 0.5 | susceptibility category (S/I/R) (host strain YMC17/03/R4607): S | susceptibility test value (number given before S/I/R) (host strain YMC17/03/R4607): 0.5 | antibiotic susceptibility S/I/R (host strain YMC17/04/R488): R | antibiotic susceptibility value (host strain YMC17/04/R488): 8 | susceptibility category (S/I/R) (host strain YMC17/04/R488): R | susceptibility test value (number given before S/I/R) (host strain YMC17/04/R488): 8 | antibiotic susceptibility S/I/R (host strain YMC17/04/R640): R | antibiotic susceptibility value (host strain YMC17/04/R640): 8 | susceptibility category (S/I/R) (host strain YMC17/04/R640): R | susceptibility test value (number given before S/I/R) (host strain YMC17/04/R640): 8 | antibiotic susceptibility S/I/R (host strain YMC/17/05/R1095): R | antibiotic susceptibility value (host strain YMC/17/05/R1095): 16 | susceptibility category (S/I/R) (host strain YMC/17/05/R1095): R | susceptibility test value (number given before S/I/R) (host strain YMC/17/05/R1095): 16
